# Earlier results as cited in US9801827B2, “Dosage forms for administering combinations of drugs” (Pozen Inc., priority 2006, dated 2017).
# Settings: pharmacokinetic half-life, given as examples of long acting NSAIDs
row,Compound,half-life
1,CCc1cccc2c3c([nH]c12)C(CC)(CC(=O)O)OCC3 (stereo not drawn) [etodolac],about 7 hours
2,CC(C(=O)O)c1ccc(-c2ccccc2)c(F)c1 (stereo not drawn) [flurbiprofen],about 6 hours
3,O=C(c1ccccc1)c1ccc2n1CCC2C(=O)O (stereo not drawn) [ketorolac],8 to 9 h
4,Cc1cccc(Nc2ccccc2C(=O)O)c1C [mefenamic acid],up to 4 hours
5,COc1ccc2cc(CCC(C)=O)ccc2c1 [nabumetone],22 to 30 h
6,O=C(O)CCc1nc(-c2ccccc2)c(-c2ccccc2)o1 [oxaprozin],42 to 50 h
